{"source": "patent US12065421B2", "about": "“Inhibitors of oplophorus luciferase-derived bioluminescent complexes” (priority 2018, dated 2024)", "data": [{"target": "T1, NanoBiT® HiBiT non-luminescent peptide and LgBiT non-luminescent polypeptide (HiBiT/LgBiT bioluminescent complex) (Oplophorus gracilirostris, UniProt Q9GV45, A31E/A60N/A81I/C191F/D135N/E192K/F58L/F95D/G184S/G42A/G62A/G78A/G94A/G98A/H120P/I103V/I117V/I134L/K70R/L176M/L195S/L54V/L73R/L99Q/M102E/N171T/N193K/P142E/Q151K/Q38E/Q45L/T186S/V71I/Y165I)", "T1 construct": "fused on or other part: N-terminal Met-Val on LgBiT in place of the signal peptide (residues 1-27); The chain is split between residues 184 and 185 into LgBiT and the 11-residue HiBiT peptide (residues 185-195); C-terminal A196 is absent", "T1 sequence (Q9GV45 other isoform, or with tags, fused parts or gaps with the stated changes)": "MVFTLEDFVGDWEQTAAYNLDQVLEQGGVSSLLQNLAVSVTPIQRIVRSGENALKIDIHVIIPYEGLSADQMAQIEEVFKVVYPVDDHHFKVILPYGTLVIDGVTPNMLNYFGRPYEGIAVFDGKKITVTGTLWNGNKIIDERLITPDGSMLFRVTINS", "assay": "biochemical", "units": {"IC50": "µM"}, "values": [{"molecule": "Cc1ccc(S(=O)(=O)Nc2ccccc2C(=O)Nc2ccc(-c3ccccc3)cc2)cc1", "note": "[JRW-1288, N-([1,1′-biphenyl]-4-yl)-2-((4-methylphenyl)sulfonamido)benzamide]", "IC50": 0.11}, {"molecule": "O=C(Nc1cc2ccccc2s1)c1ccccc1NS(=O)(=O)c1ccc2c(c1)CCCC2", "note": "[JRW-1077, N-(benzo[b]thiophen-2-yl)-2-((5,6,7,8-tetrahydronaphthalene)-2-sulfonamido)benzamide]", "IC50": 0.089}, {"molecule": "CCOC(=O)c1cccc(NC(=O)c2ccccc2NS(=O)(=O)c2ccc(C)cc2)c1", "note": "[HL-0026, ethyl 3-(2-((4-methylphenyl)sulfonamido)benzamido)benzoate]", "IC50": 0.24}, {"molecule": "COc1cccc(S(=O)(=O)Nc2ccccc2C(=O)Nc2cc3ccccc3s2)c1", "note": "[JRW-1230, N-(benzo[b]thiophen-2-yl)-2-((3-methoxyphenyl)sulfonamido)benzamide]", "IC50": 0.0078}, {"molecule": "Cc1ccc(S(=O)(=O)Nc2ccccc2C(=O)Nc2ccccc2C#N)cc1", "note": "[JRW-1008, N-(2-cyanophenyl)-2-((4-methylphenyl)sulfonamido)benzamide]", "IC50": 0.24}, {"molecule": "Cc1ccc(NC(=O)c2ccccc2NS(=O)(=O)c2cccc(-c3ccccc3)c2)cc1", "note": "[JRW-1248, 2-([1,1′-biphenyl]-3-sulfonamido)-N-(p-tolyl)benzamide]", "IC50": 0.28}, {"molecule": "O=Cc1ccc(S(=O)(=O)Nc2ccccc2C(=O)Nc2cc3ccccc3s2)cc1", "note": "[HL-0038, N-(benzo[b]thiophen-2-yl)-2-((4-formylphenyl)sulfonamido)benzamide]", "IC50": 0.044}, {"molecule": "CCCc1ccccc1NC(=O)c1ccccc1NS(=O)(=O)c1ccc(C)cc1", "note": "[HL-0059, 2-((4-methylphenyl)sulfonamido)-N-(2-propylphenyl)benzamide]", "IC50": 0.19}, {"molecule": "Cc1ccc(NC(=O)c2ccccc2NS(=O)(=O)c2ccc(C)cc2)cc1", "note": "[HL-0019, 2-((4-methylphenyl)sulfonamido)-N-(p-tolyl)benzamide]", "IC50": 0.029}, {"molecule": "Cc1ccc(NC(=O)c2ccccc2NS(=O)(=O)c2cccc(N)c2)cc1", "note": "[JRW-1255, 2-((3-aminophenyl)sulfonamido)-N-(p-tolyl)benzamide]", "IC50": 0.06}, {"molecule": "CCCCCCc1ccc(NC(=O)c2ccccc2NS(=O)(=O)c2ccc(C)cc2)cc1", "note": "[JRW-1090, N-(4-hexylphenyl)-2-((4-methylphenyl)sulfonamido)benzamide]", "IC50": 1.1}, {"molecule": "Cc1ccc(S(=O)(=O)Nc2ccccc2C(=O)Nc2sc3c(c2C#N)CCC3)cc1", "note": "[JRW-0998, N-(3-cyano-5,6-dihydro-4H-cyclopenta[b]thiophen-2-yl)-2-((4-methylphenyl)sulfonamido)benzamide]", "IC50": 0.043}, {"molecule": "CCCCC#Cc1cccc(S(=O)(=O)Nc2ccccc2C(=O)Nc2ccc(C)cc2)c1", "note": "[JRW-1270, 2-((3-(hex-1-yn-1-yl)phenyl)sulfonamido)-N-(p-tolyl)benzamide]", "IC50": 1.2}, {"molecule": "O=C(Nc1cc2ccccc2s1)c1ccccc1NS(=O)(=O)c1ccc(CCCO)cc1", "note": "[HL-0062, N-(benzo[b]thiophen-2-yl)-2-((4-(3-hydroxypropyl)phenyl)sulfonamido)benzamide]", "IC50": 1.2}, {"molecule": "Cc1ccc(S(=O)(=O)Nc2ccccc2C(=O)Nc2sccc2C#N)cc1", "note": "[JRW-1006, N-(3-cyanothiophen-2-yl)-2-((4-methylphenyl)sulfonamido)benzamide]", "IC50": 1}, {"molecule": "COc1ccc(C(=O)Nc2cc3ccccc3s2)c(NS(=O)(=O)c2ccc(C)cc2)c1", "note": "[JRW-1203, N-(benzo[b]thiophen-2-yl)-4-methoxy-2-((4-methylphenyl)sulfonamido)benzamide]", "IC50": 0.1}, {"molecule": "Cc1ccc(S(=O)(=O)Nc2ccc(C)cc2C(=O)Nc2cc3ccccc3s2)cc1", "note": "[HL-0061, N-(benzo[b]thiophen-2-yl)-5-methyl-2-((4-methylphenyl)sulfonamido)benzamide]", "IC50": 0.029}, {"molecule": "Cc1ccc(S(=O)(=O)Nc2ccccc2C(=O)Nc2sc3c(c2C#N)CCCC3)cc1", "note": "[JRW-1004, N-(3-cyano-4,5,6,7-tetrahydrobenzo[b]thiophen-2-yl)-2-((4-methylphenyl)sulfonamido)benzamide]", "IC50": 0.03}, {"molecule": "Cc1ccc(NC(=O)c2ccccc2NS(=O)(=O)c2cccc(OC(F)(F)F)c2)cc1", "note": "[JRW-1328, N-(p-tolyl)-2-((3-(trifluoromethoxy)phenyl)sulfonamido)benzamide]", "IC50": 1.1}, {"molecule": "Cc1ccc(S(=O)(=O)Nc2ccccc2C(=O)Nc2ccc(CCCCO)cc2)cc1", "note": "[JRW-1150, N-(4-(4-hydroxybutyl)phenyl)-2-((4-methylphenyl)sulfonamido)benzamide]", "IC50": 19}, {"molecule": "CCCCOc1cccc(S(=O)(=O)Nc2ccccc2C(=O)Nc2ccc(C)cc2)c1", "note": "[JRW-1266, 2-((3-butoxyphenyl)sulfonamido)-N-(p-tolyl)benzamide]", "IC50": 1.5}, {"molecule": "CCCCc1cccc(NC(=O)c2ccccc2NS(=O)(=O)c2ccc(C)cc2)c1", "note": "[HL-0070, N-(3-butylphenyl)-2-((4-methylphenyl)sulfonamido)benzamide]", "IC50": 0.13}, {"molecule": "CCCCc1ccc(NC(=O)c2ccccc2NS(=O)(=O)c2ccc(C)cc2)cc1", "note": "[JRW-1076, N-(4-butylphenyl)-2-((4-methylphenyl)sulfonamido)benzamide]", "IC50": 0.026}, {"molecule": "CCN(c1ccccc1C(=O)Nc1ccc(OC)cc1)S(=O)(=O)c1ccc(C)cc1", "note": "[JRW-1325, 2-((N-ethyl-4-methylphenyl)sulfonamido)-N-(4-methoxyphenyl)benzamide]", "IC50": 1.3}, {"molecule": "Cc1ccc(S(=O)(=O)Nc2ccccc2C(=O)Nc2ccccc2Br)cc1", "note": "[JRW-1282, N-(2-bromophenyl)-2-((4-methylphenyl)sulfonamido)benzamide]", "IC50": 0.2}, {"molecule": "N#Cc1c(NC(=O)c2ccccc2NS(=O)(=O)c2ccccc2)sc2c1CCC2", "note": "[HL-0010, N-(3-cyano-5,6-dihydro-4H-cyclopenta[b]thiophen-2-yl)-2-(phenylsulfonamido)benzamide]", "IC50": 0.022}, {"molecule": "COC(=O)c1cccc(S(=O)(=O)Nc2ccccc2C(=O)Nc2ccc(C)cc2)c1", "note": "[JRW-1250, methyl 3-(N-(2-(p-tolylcarbamoyl)phenyl)sulfamoyl)benzoate]", "IC50": 0.54}, {"molecule": "COc1ccc(C(=O)Nc2ccc(C)cc2)c(NS(=O)(=O)c2ccc(C)cc2)c1", "note": "[JRW-1202, 4-methoxy-2-((4-methylphenyl)sulfonamido)-N-(p-tolyl)benzamide]", "IC50": 0.18}, {"molecule": "Cc1ccc(S(=O)(=O)Nc2ccccc2C(=O)NC2CCCCC2)cc1", "note": "[HL-0006, N-cyclohexyl-2-((4-methylphenyl)sulfonamido)benzamide]", "IC50": 0.21}, {"molecule": "COc1ccc(S(=O)(=O)Nc2ccccc2C(=O)Nc2ccc(C)cc2)cc1", "note": "[JRW-1285, 2-((4-methoxyphenyl)sulfonamido)-N-(p-tolyl)benzamide]", "IC50": 0.36}, {"molecule": "Cc1ccc(NC(=O)c2cc(O)ccc2NS(=O)(=O)c2ccc(C)cc2)cc1", "note": "[JRW-1232, 5-hydroxy-2-((4-methylphenyl)sulfonamido)-N-(p-tolyl)benzamide]", "IC50": 1}, {"molecule": "Cc1ccc(S(=O)(=O)Nc2cc3ccccc3cc2C(=O)Nc2cc3ccccc3s2)cc1", "note": "[HL-0057, N-(benzo[b]thiophen-2-yl)-3-((4-methylphenyl)sulfonamido)-2-naphthamide]", "IC50": 0.055}, {"molecule": "Cc1ccc(S(=O)(=O)Nc2cc(F)ccc2C(=O)Nc2cc3ccccc3s2)cc1", "note": "[JRW-1346, N-(benzo[b]thiophen-2-yl)-4-fluoro-2-((4-methylphenyl)sulfonamido)benzamide]", "IC50": 0.014}]}]}
